In series [1] the test system is IV9 peptide-loaded T2 cells.
Series [2] deals with naïve HLA A2/K^b splenocytes. As to the kind of experiment: Lymphocyte proliferation assay (3H-thymidine incorporation). It is filed as cell-based, transgenic HLA A2/K^b mice. The following applies: 48 hours culture, up to 1.6 μM ODN. As to the method: A naïve transgenic A2/K^b spleen cell suspension was prepared as described for immunized splenocytes in Example 4. Following the removal of erythrocytes using red cell lysis buffer (0.15 M NH4Cl, 1 mM KHCO3, 0.1 mM Na2EDTA in distilled H2O) and subsequent washing, the concentration was adjusted to 4×10^6 cells/ml in complete in vitro stimulation (IVS) medium. One hundred microliters of splenocyte suspension was plated onto 96 well U-bottomed plate along with 100 μl of serially diluted CpG DNA in serum-free IVS medium. Concanavalin A (Sigma, St. Louis, Mo.) at a concentration of 5 μg/ml and unstimulated splenocytes were used as positive and negative controls respectively. […] Levels of TdR uptake were determined by liquid scintillation using a TriLux counter (Wallac, […]). Results were expressed as a stimulation index (SI) compared to unstimulated splenocytes.
In vitro analysis of the proliferative effect of two synthetic ODNs was conducted using naïve HLA A2/K^b splenocytes. […] Proliferative responses were determined by ^3H-thymidine incorporation using naïve transgenic A2/K^b splenocytes cultured with immunostimulatory ODN 1826 (SEQ ID NO:5; black bar) or control ODN sequence 1984 (SEQ ID NO:6; white bar) for 48 hours. […]
Background: Incorporation of labelled thymidine or its analogues reports DNA synthesis.

The test system of series [3] is T2 target cells pulsed with SEQ ID NO:10. As to the kind of experiment: Chromium release assay after immunization with SEQ ID NO:11, T2 targets pulsed with SEQ ID NO:10. In kind it is in vivo, HLA A2.1/Kb transgenic mice.

Square brackets hold non-standard residues; d marks the D form. Peptide text beside a SMILES is read from it. Cha = N[C@@H](CC1CCCCC1)C(=O)O

With `CC[C@H](C)[C@H](NC(=O)[C@H](C)NC(=O)[C@H](C)NC(=O)[C@H](C)NC(=O)[C@H](CCCCN)NC(=O)[C@H](CC(C)C)NC(=O)[C@@H](NC(=O)[C@H](Cc1c[nH]c2ccccc12)NC(=O)[C@H](C)NC(=O)[C@H](C)NC(=O)[C@@H](NC(=O)[C@H](CC1CCCCC1)NC(=O)[C@H](CCCCN)NC(=O)[C@H](C)N)C(C)C)[C@@H](C)O)C(=O)N[C@@H](CC(C)C)C(=O)N[C@@H](CCCCN)C(=O)N[C@@H](CCC(=O)O)C(=O)N1CCC[C@H]1C(=O)N[C@H](C(=O)N[C@@H](Cc1c[nH]cn1)C(=O)NCC(=O)N[C@H](C(=O)O)C(C)C)C(C)C` [PADRE-IV9, AKXVAAWTLKAAAILKEPVHGV] (H-AK[Cha]VAAWTLKAAAILKEPVHGV-OH), the cytotoxicity result in series [1] (between 10-15 nmoles of peptide, E:T ratio of 25) is “approximately 15%”.

For 5′ TCCATGACGTTCCTGACGTT 3′ [ODN 1826], in series [1] (co-administered with fusion peptide (50 nmoles PADRE-IV9 elsewhere in the source), s.c., saline), the “amount of CpG DNA per dose capable of augmenting the CTL response” value is no more than 1 µg. Besides, the “plateau of CTL response” value in series [1] (with 50 nmoles PADRE-IV9, E:T of 6, up to 25 μg CpG DNA) is reported as “no clear plateau”. The “proliferative response (stimulation index)” value in series [2] is given as “potent generalized proliferative response”.

Consider “KSSAKXVAAWTLKAAASLYNTVATL [SEQ ID NO:11, PADRE-Gag77-85 fusion peptide]”, for which the “specific recognition (non-specific recognition subtracted)” value in series [3] (25 nmoles with 25 μg ODN 1826 s.c., E:T 4) was determined as 41%; in series [3] (25 nmoles with 25 μg ODN 1826 s.c., E:T 20) it was 62%; in series [3] (25 nmoles with 25 μg ODN 1826 s.c., E:T 100) it was 49%; in series [3] (50 nmoles with 25 μg ODN 1826 s.c., E:T 4), 9.3%; in series [3] (50 nmoles with 25 μg ODN 1826 s.c., E:T 20), 30%; in series [3] (50 nmoles with 25 μg ODN 1826 s.c., E:T 100), 33%.

Turning to “5′ TCCAGGACTTCTCTCAGGTT 3′ (chemistry not given here) [ODN 1984]”, in series [2], the “proliferative response (stimulation index)” value is “little or no proliferation”.
